Literature values as cited in patent US7955790B2, “Skin substitutes with improved barrier function” (Stratatech Corporation, priority 2001, dated 2011).
Like-named read-outs stand apart in the source and are kept apart here.

Tests used:
in vitro Cultures [1] = conditions: for Lipid Composition: substance added to in vitro cultures
in vitro Cultures [2] = conditions: substance added to in vitro cultures

## O=C1O[C@H]([C@@H](O)CO)C(O)=C1O [Vitamin C, ascorbic acid]
In vitro Cultures [1]; skin equivalent cultures, electron microscopy
  overall SC architecture: improved
In vitro Cultures [1]
  Lipid Composition: Major
In vitro Cultures [1]; listed as vitamin C
  Lipid Composition: improved

## EGF: epidermal growth factor added to in vitro cultures
In vitro Cultures [1]
  Lipid Composition: High triglycerides

## Estrogen
In vitro Cultures [2]
  Barrier Function: Accelerates

## Vitamin D
In vitro Cultures [2]; listed as vitamin D
  Barrier Function: improvements in some studies

## Vitamin E
In vitro Cultures [1]
  Lipid Composition: No effect
